Experimental data as given in BindingDB's records for doi:10.1016/s0960-894x(00)00493-5 (Wyeth-Ayerst Research, 2000).

Target: Proto-oncogene tyrosine-protein kinase Src (Homo sapiens, UniProt P12931)
Assay: Kinase inhibition Assay
Conditions: pH 7.5; 30 °C
Experimental: Src kinase activity was measured in an ELISA format. IC50 is the inhibitor concentration which inhibits 50% of kinase activity that catalyzes the transfer of the terminal phosphate from ATP to the substrate.

Sequence of Proto-oncogene tyrosine-protein kinase Src (P12931 2-536 limits assumed): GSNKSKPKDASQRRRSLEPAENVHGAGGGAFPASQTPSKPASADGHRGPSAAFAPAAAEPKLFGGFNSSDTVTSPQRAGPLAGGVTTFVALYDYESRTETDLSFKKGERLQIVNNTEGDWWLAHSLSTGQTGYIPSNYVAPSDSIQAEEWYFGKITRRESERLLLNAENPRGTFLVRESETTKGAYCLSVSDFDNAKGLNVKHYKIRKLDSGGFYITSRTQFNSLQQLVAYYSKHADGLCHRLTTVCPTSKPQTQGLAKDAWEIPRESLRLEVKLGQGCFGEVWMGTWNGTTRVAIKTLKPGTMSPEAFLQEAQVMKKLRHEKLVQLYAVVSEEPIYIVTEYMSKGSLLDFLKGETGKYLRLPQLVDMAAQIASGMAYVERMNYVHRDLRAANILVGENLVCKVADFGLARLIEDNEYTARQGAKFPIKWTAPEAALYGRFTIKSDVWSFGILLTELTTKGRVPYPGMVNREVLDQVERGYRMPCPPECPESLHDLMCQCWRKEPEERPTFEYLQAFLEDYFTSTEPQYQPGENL

IC50: > 10 µM
Compound: COc1cc2ncc(C#N)c(NCc3cc(OC)c(OC)c(OC)c3)c2cc1OC [6,7-dimethoxy-4-{[(3,4,5-trimethoxyphenyl)methyl]amino}quinoline-3-carbonitrile]
